This note sets out measurements from patent US20190119282A1, “IMIDAZOPYRIDAZINES USEFUL AS INHIBITORS OF THE PAR-2 SIGNALING PATHWAY” (Vertex Pharmaceuticals Incorporated, priority 2013, published 2019).

For series [1], the target named is T1, PAR2 (HT-29 cells, SLIGKV activation) (Homo sapiens, UniProt P55085).
T1 construct: host or cells: HT-29 cells
T1 sequence (P55085 26-397): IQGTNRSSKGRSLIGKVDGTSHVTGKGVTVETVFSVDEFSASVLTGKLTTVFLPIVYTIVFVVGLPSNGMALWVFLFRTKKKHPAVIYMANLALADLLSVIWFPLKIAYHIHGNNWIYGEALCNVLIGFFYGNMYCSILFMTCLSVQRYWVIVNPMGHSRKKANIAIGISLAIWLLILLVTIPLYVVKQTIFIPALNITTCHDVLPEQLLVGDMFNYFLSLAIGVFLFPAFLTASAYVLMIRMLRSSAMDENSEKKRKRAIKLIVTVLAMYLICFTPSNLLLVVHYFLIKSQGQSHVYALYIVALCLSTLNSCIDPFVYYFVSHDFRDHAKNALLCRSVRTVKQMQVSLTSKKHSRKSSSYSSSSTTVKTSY
Briefly: Ca FLIPR TETRA assay, ANTAGONIST mode, stimulation with 8 μM SLIGKV. Type of series: cell-based. Particulars: HT-29 cells, antagonist mode, stimulation with 8 μM SLIGKV. The method, boiled down: (§1)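 HT-29 cells grown overnight in 1% FBS McCoy's medium were loaded with calcium 5 dye (45 min 37 °C, 15 min r.t.). Compounds were added and Ca2+ read for direct activation, then after 30 min at r.t. cells were stimulated with 8 μM SLIGKV, 1 U/mL thrombin, 3.1 U/mL trypsin or 0.6 μM UTP (final).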

Series [2] addresses T2, PAR2 (HT-29 cells, trypsin activation) (Homo sapiens, UniProt P55085).
T2 construct: host or cells: HT-29 cells
T2 sequence (P55085 26-397): T1 sequence (P55085 26-397)
Put plainly: Ca FLIPR TETRA assay, ANTAGONIST mode, stimulation with 3.1 U/mL trypsin. Type of series: cell-based. To be noted: HT-29 cells, antagonist mode, stimulation with 3.1 U/mL trypsin. The method, boiled down: as §1

Series [3] concerns Thrombin-stimulated Ca2+ response in HT-29 cells. Briefly: Ca FLIPR TETRA assay, ANTAGONIST mode, stimulation with 1 U/mL Thrombin. To be noted: Homo sapiens; HT-29 cells, antagonist mode, stimulation with 1 U/mL Thrombin. It is filed as cell-based, human. Summed up:
as §1

In series [4] the test system is UTP-stimulated Ca2+ response in HT-29 cells. Put plainly: Ca FLIPR TETRA assay, ANTAGONIST mode, stimulation with 0.6 μM UTP. Type of series: cell-based, human. Particulars: Homo sapiens; HT-29 cells, antagonist mode, stimulation with 0.6 μM UTP. Summed up:
as §1

Series [5] is described as follows: In vivo rat pharmacokinetics (intravenous and oral). To be noted: plasma; for clearance: intravenous 0.5 to 1 mg/kg, read-out: Clp; for Vd: intravenous, read-out: Vss; for bioavailability: oral by gavage; for half-life: read-out: T ½ (converted). The procedure: Example 61: Protocol for Testing PAR2 Compounds In Vivo Rat Pharmacokinetics Experiments
Compounds delivered by intravenous route were formulated using a solution formulation consisting of 5% N-methylpyrrolidone 10% Vitamin E-TPGS and 85% water (v/v/) or a solution formulation consisting of 25% N-methylpyrrolidone 35% polyethylene glycol 400 and 40% water (v/v/). Intravenous formulations were administered by a bolus injection (over approximately 10 seconds) using a hypodermic needle attaches to a syringe (tail vein). The dose volume was varied from 1 to 2 mL/kg and the dose was varied from 0.5 to 1 mg/kg. Compounds delivered orally were formulated as a solution formulation consisting of 5% N-methylpyrrolidone 10% Vitamin E-TPGS and 85% water (v/v/) or as fine suspension using a cellulose derivative suspending agent with or without the addition of a wetting agent/surfactant. Milling of large particles was performed as needed to reduce particle size using focused electroacoustic milling, homogenization or low energy media milling. A spray-dried solid dispersion was prepared for key compounds using 1:1 combination with cellulose derivatives. Test compounds were administered orally by gavage using a gavage plastic needle attached to a syringe. The dose volume was varied from 5 to 10 mL/kg and the dose was varied from 1 to 600 mg/kg.
Rats were bled by venipuncture (jugular vein) and the samples were collected into tubes containing K3EDTA. The tubes were placed on wet ice until processed. The samples were centrifuged for approximately 10 minutes (at approximately 4° C.) within approximately 30 minutes of collection to prepare plasma or diluted in citrate buffer (1:3) and stored frozen (approximately −30° C.). Thawed plasma or whole blood samples were extracted by protein precipitation using an organic solvent followed by centrifugation. The supernatants were separated by high-performance liquid chromatography coupled to mass spectrometry detection. A calibration curve was prepared using reference standard compounds spiked into either blank plasma or whole blood matrices and extracted similarly to unknown samples. Pharmacokinetic parameters were calculated using non-compartmental analysis.

Series [6] relates to carrageenan-induced paw edema. Put plainly: Rat carrageenan-induced paw edema model. It is filed as in vivo, Sprague Dawley rats. Particulars: given before carrageenan challenge. Here is the method:
Male Sprague Dawley rats and BALB/c mice were housed in groups in a temperature controlled room and were acclimatized in the animal facility for at least three days prior to use. Experiments were performed during the light phase of the cycle. Animals have food and water ad libitum.
Example 63: Rat Carrageenan-Induced Paw Edema Model
Peripheral inflammation was induced by intra-plantar administration of 100 ul of a 1% w/volume (in saline) carrageenan solution under isoflurane anesthesia. The degree of swelling was assessed using the plethysmometer at 2-3-4-5-6 h after carrageenan injection. Test compound or vehicle (0.5% MC/0.1% SDS) was systemically administered at the indicated doses in a volume of 5 mL/kg either I-3 hour before carrageenan challenge (Table 9) or 2 hours post carrageenan challenge (Table 10).
Data are expressed as the mean % effect. Statistical significance was assessed using t-test for comparison between naive and inflamed rats, and one-way ANOVA followed by post-hoc comparison test for overall drug effectiveness. A difference between groups is considered significant with a p value of <0.05. *, p<0.05; **, p<0.01; ***, p<0.001 vs. vehicle.

Marks after values point to notes of the source that are not given here. Where only a bound is given, the exact number is not on record here.

What is called IC50 is the concentration that gives 50% inhibition. As for `CC(C)(C)c1cc(-c2ccc(F)cc2)nn2cc(C(=O)N3CCN(C(=O)C4CC(O)(C(F)(F)F)C4)CC3(C)C)nc12` (stereo not shown) [Compound I-199], the concentration for half-maximal inhibition (IC50) was 0.1 nM in series [1], 0.2 nM in series [2], > 1000 nM in series [3] and > 1000 nM in series [4]. In addition, in series [5], the clearance came out at 3.2 mL/min/kg. In addition, the Vd in series [5] came to 4.2 L/kg. Further, the bioavailability in series [5] amounted to 67%. For the same molecule, in series [5], the half-life is 18.1 h. Moreover, the “% inhibition of carrageenan induced paw edema” value (“% inhibition” for short) is on record as 14% in series [6] (dose 7.5 mg/kg) and 52*** % in series [6] (dose 20 mg/kg).
As to `CC(C)(C)c1cc(-c2ccc(F)cc2)nn2cc(C(=O)N3CCN(C(=O)c4c[nH]cn4)CC3(C)C)nc12` [Compound I-232], the IC50 in series [1] came to 1 nM; in series [2], 1.4 nM; in series [3], 890 nM; in series [4], 900 nM. For the same molecule, the clearance in series [5] stood at 16.9 mL/min/kg. Also, the Vd in series [5] worked out at 3.3 L/kg. In addition, in series [5], the bioavailability came to 75%. In addition, the half-life in series [5] is 2.5 h. Moreover, the “% inhibition” value in series [6] (dose 10 mg/kg) is reported as 19* %.
On to `CC(C)c1cc(-c2ccc(C(F)(F)F)cc2)nn2cc(C(=O)N3CCNC(=O)C3(C)C)nc12` [Compound I-241], for which the IC50 in series [1] was 1.7 nM; in series [2], 2 nM; in series [3] it was > 1000 nM; in series [4], > 1000 nM. The “% inhibition” value in series [6] (dose 7 mg/kg) was 17** %.
On to `Cn1nnc(N2CCN(C(=O)c3cn4nc(-c5ccc(F)cc5)cc(C(C)(C)C)c4n3)C(C)(C)C2=O)n1` [Compound I-249], for which the IC50 in series [1] is 0.6 nM; in series [2], 0.7 nM; in series [3] it was > 1000 nM; in series [4] it was > 1000 nM. Further, the “% inhibition” value in series [6] (dose 10 mg/kg) is reported as 49*** %; in series [6] (dose 30 mg/kg), 26* %.
Take `CC(C)(C)c1cc(-c2ccc(C(F)(F)F)cc2)nn2cc(C(=O)N3CCNC(=O)C3(C)C)nc12` [Compound I-283, 4-[8-tert-butyl-6-[4-(trifluoromethyl)phenyl]imidazo[1,2-b]pyridazine-2-carbonyl]-3,3-dimethyl-piperazin-2-one]: the 50% inhibitory concentration (IC50) in series [1] was 2.2 nM; in series [2] it was 2 nM; in series [3] it was > 1000 nM; in series [4], > 1000 nM. Further, in series [5], the clearance came to 1.07 mL/min/kg. In series [5], the Vd was determined as 6.82 L/kg. For the same molecule, the bioavailability in series [5] is 76%. Besides, the half-life in series [5] is 77.9 h. Moreover, the “% inhibition” value in series [6] (dose 20 mg/kg) is reported as 19* %.
For `Cc1nnc(C(=O)N2CCN(C(=O)c3cn4nc(-c5ccc(F)cc5)cc(C(C)(C)C)c4n3)C(C)(C)C2)o1` [Compound I-288], the half-maximal inhibitory concentration (IC50) was 1.2 nM in series [1], 1.8 nM in series [2], 770 nM in series [3] and > 1000 nM in series [4]. Also, in series [6] (dose 10 mg/kg), the “% inhibition” value is given as 48*** %.
Regarding `Cc1cc(C(=O)N2CCN(C(=O)c3cn4nc(-c5ccc(F)cc5)cc(C(C)(C)C)c4n3)C(C)(C)C2)[nH]n1` [Compound I-291], the concentration for half-maximal inhibition (IC50) in series [1] was 0.2 nM; in series [2], 0.3 nM; in series [3] it was 750 nM; in series [4], 670 nM. In series [6] (dose 5 mg/kg), the “% inhibition” value is listed as 37** %.
The like results for `CC(C)(C)c1cc(-c2ccc(F)cc2)nn2cc(C(=O)N3CCN(c4cn[nH]c4)C(=O)C3(C)C)nc12` [Compound I-310] were, in that order, 0.6 nM, 1 nM, > 1000 nM, 880 nM and 25** %.
As to `CC(C)(C)c1cc(-c2ccc(C(F)(F)F)cc2)nn2cc(C(=O)N3CCN(c4cn[nH]c4)C(=O)C3(C)C)nc12` [Compound I-366], the IC50 is 2.2 nM in series [1], 2.5 nM in series [2], > 1000 nM in series [3] and > 1000 nM in series [4]. The “% inhibition” value in series [6] (dose 20 mg/kg) was 43** %.
For the molecule `Cc1cc(-c2cc(C(C)(C)C)c3nc(C(=O)N4CCN(c5cn[nH]c5)C(=O)C4(C)C)cn3n2)ccc1F` [Compound I-417], the IC50 in series [1] was 2.5 nM; in series [2], 3.2 nM; in series [3] it was > 1000 nM; in series [4], > 1000 nM. In addition, the “% inhibition” value in series [6] (dose 20 mg/kg) is 32** %.
Regarding `CC(C)(C)c1cc(-c2ccc(Cl)cc2)nn2cc(C(=O)N3CCN(C(=O)[C@H]4C[C@@](C)(O)C4)CC3(C)C)nc12` [Compound I-421], the IC50 was 0.3 nM in series [1], 0.2 nM in series [2], > 1000 nM in series [3] and > 1000 nM in series [4]. Further, in series [5], the clearance came out at 6.15 mL/min/kg. In series [5], the Vd was 3.07 L/kg. Besides, the bioavailability in series [5] is 189%. Further, in series [5], the half-life is 9.62 h. Further, the results for the “% inhibition” value in series [6] (dose 1 mg/kg) and in series [6] (dose 10 mg/kg) were 11% and −32** %, respectively.
For `CC(C)(C)c1cc(C2CCC(F)(F)CC2)nn2cc(C(=O)N3CCN(c4cn[nH]c4)C(=O)C3(C)C)nc12` [Compound I-429], the IC50 was 2.4 nM in series [1], 3.3 nM in series [2], > 1000 nM in series [3] and > 1000 nM in series [4]. The “% inhibition” value in series [6] (dose 20 mg/kg) was 43** %.
For `Cc1nc(C(=O)N2CCN(C(=O)c3cn4nc(-c5ccc(Cl)cc5)cc(C(C)(C)C)c4n3)C(C)(C)C2)n[nH]1` [Compound I-436, [8-tert-butyl-6-(4-chlorophenyl)imidazo[1,2-b]pyridazin-2-yl]-[2,2-dimethyl-4-(5-methyl-1H-1,2,4-triazole-3-carbonyl)piperazin-1-yl]methanone], the IC50 worked out at 0.3 nM in series [1], 0.4 nM in series [2], 11000 nM in series [3] and 3600 nM in series [4]. Further, in series [5], the clearance turned out to be 4.21 mL/min/kg. Also, the Vd in series [5] is 2.05 L/kg. For the same molecule, the bioavailability in series [5] turned out to be 77%. For the same molecule, the half-life in series [5] was 7.5 h. In addition, the “% inhibition” value in series [6] (dose 1 mg/kg) is listed as −17* %; in series [6] (dose 30 mg/kg), 36** %.
On to `Cc1n[nH]c(C(=O)N2CCN(C(=O)c3cn4nc(-c5ccc(F)cc5)cc(C(C)(C)C)c4n3)CC2)n1` [Compound I-525], for which the IC50 in series [1] was 116 nM; in series [2], 247 nM; in series [3] it was > 1000 nM; in series [4], > 1000 nM. The “% inhibition” value in series [6] (dose 50 mg/kg) stood at 9%.
